The values that follow come from patent US4968788A, “Biologically reversible phosphate and phosphonate protective gruops” (Board of Regents, The University of Texas System, priority 1989, dated 1990).

Data set [1] in a line: degradation on incubation with mouse plasma. In kind it is in vitro ADME. The method, then:
(§1) (At appropriate intervals, aliquots (100 μl) of the incubation mixtures were diluted with 3 volumes of methanol and then agitated for 1 minute on a Vortex shaker. The precipitated protein was separated by centrifugation at 10,000×g for 5 minutes, and the supernatants were analyzed by HPLC as described above.)
(§2) was incubated at […] with mouse plasma and hog liver carboxylate esterase.

Data set [2] in a line: physchem. In kind it is physicochemical. As for the experimental part: Several tests have been performed with both types of protected compositions. […] The stabilities of these protected compositions were determined in aqueous buffered solutions having pH ranging from 1 to 10, and also under selected biological conditions. Except for the acetoxymethyl derivatives of the second type, these phosphoesters were relatively stable in a neutral environment. They reverted to their parent compounds in acidic or basic media.
The protected product was stable in neutral aprotic solvents such as benzene, diethyl ether and ethyl acetate. […] The half-life was greater than 4 hours.
These solutions were analyzed by (HPLC) high performance liquid chromatography (Waters model ALC 204). The disappearance of the bis(acyloxymethyl) phosphate was monitored by reversed-phase chromatography on a column of μ Bondapak-C18 (30 cm×4 mm i.d., 10 μm; Waters Assoc., Milford, Mass.) using solutions of 0.01M potassium phosphate buffer (pH 7.0) with methanol as the mobile phase (typically 25-50% alcohol).
The formation of intermediate B and mono(acetoxymethyl) phosphate C was monitored by ion-pair chromatography on μ Bondapak-C using the same buffer system as described above, except that tetrabutylammonium hydroxide was added to a concentration 2×10^-3 M, or by anion-exchange chromatography on a column of Partisil SAX (25 cm×4.6 mm i.d., 10 μm; Whatman) using a linear gradient of 0.01-0.1M potassium phosphate buffer (pH 6.5) as an eluent. The flow rates for these analyses and the ones described above ranged from 1.0 to 2.0 ml/min. The column effluents were monitored at 254 nm with a Schoeffel model 450 UV detector, and the concentrations were determined by comparison of the peak areas with those of reference standards.

For data set [3], the system named is hog liver carboxylate esterase. The data set is described as follows: degradation on incubation with hog liver carboxylate esterase. It counts as in vitro ADME. As for the experimental part:
as §1, §2

In data set [4] the test system is P388 leukemia which is resistant to 5-fluorouracil. The data set is described as follows: activity against P388 leukemia resistant to 5-fluorouracil. The note with it: P388 resistant to 5-fluorouracil.
The test system of data set [5] is Chinese hamster ovary cells. The data set is described as follows: prevention of growth of Chinese hamster ovary cells in culture. It counts as cell-based. The method, then:
Example 5 was repeated with the R substituent changed to fluorine (i.e., 2',5-dideoxy-5'-iodo-3'-O-acetyl-5-fluorouridine). There was a 15% yield of this product. This composition prevented the growth of Chinese hamster ovary cells in culture at a concentration of 5.0×10^-6 M [5-fluoro-2'-deoxyuridine (5-FUdR) control, 1.0×10^-6 M].
as §2

A short description of data set [6]: degradation on incubation with hog liver carboxylate esterase. The note with it: pig, liver carboxylate esterase; 65 micrograms per milliliter, 37° C., pH 7.4, 8 milligrams protein per milliliter. It counts as in vitro ADME. As for the experimental part: as §1, §2
Where [7] appears, read: 65 micrograms per milliliter, 37° C., 0.05M potassium phosphate buffer (pH 7.4), mouse plasma 50% by volume.

The half-life is the time in which the quantity being followed falls by half. As for `CC(C)(C)C(=O)OCOP(=O)(OCOC(=O)C(C)(C)C)Oc1ccccc1` [Example 3, bis(pivaloyloxymethyl) phenyl phosphate], the “resistance to both chemical and enzymatic hydrolysis” value in data set [1] (compared with the protected composition of Example 1 (so in the source)) is listed as “much more resistant”. In addition, the half-life in data set [1] (pH 7.4, incubated with mouse plasma under the same conditions as in Example 2) is roughly 5 h. Besides, the “stability in protonic solvents” value in data set [2] (protonic solvents) is reported as “stable in protonic solvents”.

On to `CC(=O)O[C@H]1C[C@H](n2cc(F)c(=O)[nH]c2=O)O[C@@H]1COP(=O)(OCOC(=O)C(C)(C)C)OCOC(=O)C(C)(C)C` [Example 7], for which the “cleavage of acyloxymethyl groups and 3'-acetyl group in mouse plasma” value in data set [1] is listed as “successively cleaved to give 5-FdUMP”. For the same compound, in data set [3], the “cleavage of acyloxymethyl groups and 3'-acetyl group with hog liver carboxylate esterase” value is reported as “successively cleaved to give 5-FdUMP”. Besides, the “activity against P388 leukemia” value in data set [4] is “active”. Besides, in data set [5], the “concentration that prevented the growth of Chinese hamster ovary cells” value amounted to 1 µM.

In the case of `CC(C)(C)C(=O)OC1CCOP(=O)(Oc2ccccc2)O1` (stereo not shown) [Example 1], in data set [1] (37° C., 30 minutes, mouse plasma), the “reversion to phenyl phosphate in mouse plasma” value is recorded as “reverted to phenyl phosphate”. Further, the “stability in organic solvents or aqueous buffers” value in data set [2] (organic solvents or aqueous buffers) was “stable”. The “conversion to phenyl phosphate with strong acids or bases” value in data set [2] (strong acids or bases) is reported as “quantitatively converted to phenyl phosphate”.

Regarding `O=c1[nH]c(=O)n([C@H]2C[C@H](O)[C@@H](CO)O2)cc1F` [Example 5-FUdR, 5-fluoro-2'-deoxyuridine, reference compound], the minimal effective concentration in data set [5] (Cricetulus griseus, read-out: concentration that prevented the growth of Chinese hamster ovary cells) is 1 µM.

As to `CC(=O)OCOP(=O)(OCOC(C)=O)Oc1ccccc1` [Example 2, bis(acetoxymethyl) phenyl phosphate], the “degradation in mouse plasma (first to mono(acetoxymethyl) analog, then to phenyl phosphate)” value in data set [1] (setting [7]) is given as “rapidly degraded”. For the same compound, the half-life in data set [1] (setting [7]) was less than 0.25 h; in data set [6] it was less than 0.25 h; in data set [2] (ethanol, water or 0.05M potassium phosphate buffer (pH 7.4), read-out: half-life in protonic solvents), greater than 4 h. The “degradation by hog liver carboxylate esterase (first to mono(acetoxymethyl) analog, then to phenyl phosphate)” value in data set [3] (65 micrograms per milliliter, 37° C., pH 7.4, 8 milligrams protein per milliliter) is “rapidly degraded”. Moreover, the “conversion in protonic solvents” value in data set [2] (ethanol, water or 0.05M potassium phosphate buffer (pH 7.4)) is given as “slowly converted to mono(acetoxymethyl) phenyl phosphate”. The “stability in neutral aprotic solvents” value in data set [2] (neutral aprotic solvents such as benzene, diethyl ether and ethyl acetate) was “stable”.

For the compound `CC(=O)O[C@H]1C[C@H](n2cc(F)c(=O)[nH]c2=O)O[C@@H]1COP(=O)(OCOC(=O)C(C)(C)C)OCOC(=O)C(C)(C)C` [Example 6], in data set [5], the “concentration that prevented the growth of Chinese hamster ovary cells” value came out at 5 µM.
